Experimental data published in patent US10933141B2, “Formulations with reduced degradation of polysorbate” (Genentech, Inc., priority 2015, dated 2021).

Experiment: Solubilization of particles from oxidative PS20 degradation (HIAC)
Type: physicochemical
Settings: 5% and 15% (w/v) HP-β-CD; 0.02% (w/v) PS20 stored 27 months at 5° C.
Procedure: Subvisible particles were measured using a HIAC 9703 particle counter equipped with an HRDL-150 detector and a 1 mL syringe. Performance of the instrument was verified with NIST-traceable 2 μm Polystyrene bead standards at 3000 counts/mL before each measurement session. The HIAC instrument was configured to a 10 mL/min flow rate, 0.1 mL tare volume, and 0.4 mL sample volume. The samples were analyzed using 4 runs of 0.4 mL sips, with the first run of each sample was discarded to prevent measurement error due to sample carryover. Results were reported as the average values for 1.4, 2, 5, 10, 15, and 25, 50 μm analysis filter sizes.
Different concentrations of HP-β-CD were tested for their ability to solubilize particles produced as a result of oxidative PS20 degradation. Solutions of concentrated HP-β-CD were prepared in triplicate in pH 5.5 buffer. Protein-free samples containing 0.02% (w/v) PS20 were stored for 27 months at 5° C., resulting in oxidative PS20 degradation and the formation of visible and subvisible particles related to PS20 degradation products. Each degraded PS20 solution was divided into 3 aliquots and concentrated excipient was spiked into each the aliquots. […] The following day, subvisible particle counts were measured using a HIAC 9703 particle counter.

2-hydroxypropyl-β-cyclodextrin [HP-β-CD]
SVP relative to control sample (0% HP-β-CD): significant reduction in SVP
